Experimental findings from patent US12030908B2, “Antimicrobial compounds, compositions, and uses thereof” (Lakewood Amedex, Inc., priority 2017, dated 2024) are described below.

This experiment has as its system P. aeruginosa. The experiment can be described thus: Broth microdilution MIC at incremental pH, P. aeruginosa. Format: cell-based. On the procedure:
MIC testing is conducted using the broth (Mueller Hinton Broth) microdilution procedures relevant to each organism group as established by the Clinical and Laboratory Standards Institute (CLSI; 3-7). MIC plates are prepared in accordance with CLSI (3-7). To prepare the test plates, automated liquid handlers are used to conduct serial dilutions and liquid transfers. Automated liquid handlers utilized in this study include the Multidrop 384 (Labsystems, Helsinki, Finland) and the Biomek 2000 (Beckman Coulter, Fullerton CA). The solution is diluted to desired pH using 1 M Citric Acid or 1 M NaOH buffer. A standardized inoculum of each test organism is prepared per CLSI methods (3, 5-7) to equal a 0.5 McFarland standard in the appropriate media followed by an additional 1:20 dilution (1:10 for anaerobes).
The plates are then inoculated with 10 μL of the diluted 0.5 McFarland suspension using the Biomek 2000 from low to high drug concentration, resulting in a final concentration of approximately 5×10^5 CFU/mL per well. An un-inoculated plate is incubated for the purpose of assessing solubility of the drug in the test media. The plates are stacked 3 to 4 high, covered with a sterile lid on the top plate, and incubated for 18 to 24 hours according to CLSI. The MIC is recorded as the lowest concentration of respective compound that inhibited visible growth of the organism.
(In general: In broth dilution the organism is exposed to a series of concentrations in liquid medium.)

On to `CCCCOP(=O)(O)OC[C@H]1O[C@@H](n2ccc(N)nc2=O)C[C@@H]1OP(=O)(O)OCCCC` [Nu-8, sodium ((2R,3S,5R)-5-(4-amino-2-oxopyrimidin-1(2H)-yl)-3-((butoxyoxidophosphor-yl)oxy)tetrahydrofuran-2-yl)methyl butyl phosphate], for which the MIC is 9.38 mg/mL (pH 1); 18.75 mg/mL (pH 3); 37.5 mg/mL (pH 4); 75 mg/mL (pH 5); over 75 mg/mL (pH 7).

In general, MIC refers to the least concentration at which growth counts as inhibited. Read a low MIC as a more susceptible organism.
